According to patent US20110086759A1, “CHEMICAL COMPOUNDS” (SYNGENTA CROP PROTECTION, INC., priority 2007, published 2011):

What was measured:
Assay type in all cases: in vivo
[1] = system: Ipomea hederaceae (IPOHE); assay: Post-emergence biological efficacy, glasshouse pot test; conditions: Ipomoea hederacea, 312 h; post-emergence, 1,000 g/ha, evaluated after 13 days (100=total damage; 0=no damage); read-out: Percentage damage caused to weed species, IPOHE
In short: (§1)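 Plants were sown in standard soil and grown 8 days in a glasshouse (24/16° C. day/night, 14 hours light, 65% humidity), then sprayed post-emergence at 1000 or 250 g/ha from acetone/water (50:50) with 0.5% Tween 20. Damage was scored visually after 13 days (0 = none, 100 = total).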

[2] = system: Alopecurus myosuroides (ALOMY); assay: as above; conditions: 312 h, post-emergence, 1,000 g/ha, evaluated after 13 days (100=total damage; 0=no damage), read-out: Percentage damage caused to weed species, ALOMY
In short: as §1

[3] = system: Setaria faberi (SETFA); assay: as above; conditions: 312 h, post-emergence, 1,000 g/ha, evaluated after 13 days (100=total damage; 0=no damage), read-out: Percentage damage caused to weed species, SETFA
In short: as §1

[4] = system: Solanum nigrum (SOLNI); assay: as above; conditions: 312 h, post-emergence, 1,000 g/ha, evaluated after 13 days (100=total damage; 0=no damage), read-out: Percentage damage caused to weed species, SOLNI
In short: as §1

[5] = system: Echinochloa crus-galli (ECHCG); assay: as above; conditions: 312 h, post-emergence, 1,000 g/ha, evaluated after 13 days (100=total damage; 0=no damage), read-out: Percentage damage caused to weed species, ECHCG
In short: as §1

[6] = system: Amaranthus retoflexus (AMARE); assay: as above; conditions: Amaranthus retroflexus, 312 h; post-emergence, 1,000 g/ha, evaluated after 13 days (100=total damage; 0=no damage); read-out: Percentage damage caused to weed species, AMARE
In short: as §1

[7] = system: Ipomea hederaceae (IPOHE); assay: Pre-emergence biological efficacy, glasshouse pot test; conditions: Ipomoea hederacea, 312 h; pre-emergence, 1,000 g/ha, evaluated after 13 days (100=total damage; 0=no damage); read-out: Percentage damage IPOHE
In short: (§2)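 One day after seeds were sown in pots, compound was sprayed at 1000 or 250 g/ha. Plants were kept at 24/16 °C with 14 h light and 65% humidity and watered twice daily; damage was graded at day 13 (0 none, 100 total).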

[8] = system: Alopecurus myosuroides (ALOMY); assay: as above; conditions: 312 h, pre-emergence, 1,000 g/ha, evaluated after 13 days (100=total damage; 0=no damage), read-out: Percentage damage ALOMY
In short: as §2

[9] = system: Setaria faberi (SETFA); assay: as above; conditions: 312 h, pre-emergence, 1,000 g/ha, evaluated after 13 days (100=total damage; 0=no damage), read-out: Percentage damage SETFA
In short: as §2

[10] = system: Solanum nigrum (SOLNI); assay: as above; conditions: 312 h, pre-emergence, 1,000 g/ha, evaluated after 13 days (100=total damage; 0=no damage), read-out: Percentage damage SOLNI
In short: as §2

[11] = system: Echinochloa crus-galli (ECHCG); assay: as above; conditions: 312 h, pre-emergence, 1,000 g/ha, evaluated after 13 days (100=total damage; 0=no damage), read-out: Percentage damage ECHCG
In short: as §2

[12] = system: Amaranthus retoflexus (AMARE); assay: as above; conditions: Amaranthus retroflexus, 312 h; pre-emergence, 1,000 g/ha, evaluated after 13 days (100=total damage; 0=no damage); read-out: Percentage damage AMARE
In short: as §2

Row | Structure (SMILES) | pest or weed control at 1000 g/ha [1] [%] | pest or weed control at 1000 g/ha [2] [%] | pest or weed control at 1000 g/ha [3] [%] | pest or weed control at 1000 g/ha [4] [%] | pest or weed control at 1000 g/ha [5] [%] | pest or weed control at 1000 g/ha [6] [%] | pest or weed control at 1000 g/ha [7] [%] | pest or weed control at 1000 g/ha [8] [%] | pest or weed control at 1000 g/ha [9] [%] | pest or weed control at 1000 g/ha [10] [%] | pest or weed control at 1000 g/ha [11] [%] | pest or weed control at 1000 g/ha [12] [%]
1 | COC(=O)c1nc(C2CC2)nc(NCC(F)c2ccc(F)cc2F)c1Cl (stereo not drawn) [Compound 4-238, 5-Chloro-2-cyclopropyl-4-[2-(2,4-difluoro-phenyl)-2-fluoro-ethylamino]-6-methoxycarbonyl-pyrimidine] | 60 | 10 | 0 | 70 | 0 | 90 | 0 | 0 | 0 | 50 | 0 | 10
2 | COC(=O)c1nc(C2CC2)nc(NCC(F)c2ccc(Cl)cc2Cl)c1Cl (stereo not drawn) [Compound 4-239, 5-Chloro-2-cyclopropyl-4-[2-(2,4-dichlorophenyl)-2-fluoro-ethylamino]-6-methoxycarbonyl-pyrimidine] | 50 | 0 | 20 | 60 | 0 | 90 | 10 | 0 | 0 | 0 | 0 | 20
3 | COC(=O)c1nc(C2CC2)nc(NCC(F)c2ccc(Br)cc2F)c1Cl (stereo not drawn) [Compound 4-240, 4-[2-(4-Bromo-2-fluorophenyl)-2-fluoro-ethylamino]-5-chloro-2-cyclopropyl-6-methoxycarbonyl-pyrimidine] | 60 | 10 | 30 | 70 | 0 | 100 | 0 | 0 | 0 | 10 | 0 | 30
4 | COC(=O)c1nc(C2CC2)nc(NCC(C)(F)c2cccc(Cl)c2)c1Cl (stereo not drawn) [Compound 4-241, 5-Chloro-4-[2-(3-chlorophenyl)-2-fluoro-propylamino]-2-cyclopropyl-6-methoxycarbonyl-pyrimidine] | 60 | 0 | 30 | 70 | 10 | 60 | 0 | 0 | 0 | 0 | 0 | 30
5 | COC(=O)c1nc(C2CC2)nc(NCC(C)(F)c2cccc(C(F)(F)F)c2)c1Cl (stereo not drawn) [Compound 4-242, 5-Chloro-2-cyclopropyl-4-[2-fluoro-2-(3-trifluoromethyl-phenyl)propyl-amino]-6-methoxy-carbonylpyrimidine] | 50 | 0 | 10 | 60 | 0 | 90 | 10 | 0 | 0 | 0 | 0 | 10
6 | COC(=O)c1nc(C2CC2)nc(NCC(C)(F)c2ccc(Cl)cc2Cl)c1Cl (stereo not drawn) [Compound 4-243, 5-Chloro-2-cyclopropyl-4-[2-(2,4-dichlorophenyl)-2-fluoro-propylamino]-6-methoxycarbonyl-pyrimidine] | 60 | 0 | 20 | 70 | 10 | 80 | 0 | 0 | 0 | 10 | 0 | 40
7 | CCCC(F)(CNc1nc(C2CC2)nc(C(=O)OC)c1Cl)c1ccc(Cl)cc1Cl (stereo not drawn) [Compound 4-244, 5-Chloro-2-cyclopropyl-4-[2-(2,4-dichloro-phenyl)-2-fluoro-pentylamino]-6-methoxycarbonyl-pyrimidine] | 50 | 0 | 0 | 20 | 0 | 20 | 0 | 0 | 0 | 0 | 0 | 30
8 | COC(=O)c1nc(C2CC2)nc(NCCCN2CCCC2=O)c1Cl [Compound 4-246, 5-Chloro-2-cyclopropyl-6-methoxycarbonyl-4-[3-(2-oxo-pyrrolidin-1-yl)propylamino]-pyrimidine] | 60 | 0 | 30 | 50 | 0 | 100 | 30 | 0 | 0 | 20 | 0 | 80
9 | COC(=O)c1nc(C2CC2)nc(NCCCN2CCCCC2C)c1Cl (stereo not drawn) [Compound 4-247, 5-Chloro-2-cyclopropyl-6-methoxycarbonyl-4-[3-(2-methyl-piperidin-1-yl)-propylamino]-pyrimidine] | 50 | 10 | 20 | 50 | 20 | 100 | 20 | 10 | 10 | 70 | 10 | 30
10 | COC(=O)c1nc(C2CC2)nc(NCCCc2ccccc2)c1Cl [Compound 4-249, 5-Chloro-2-cyclopropyl-6-methoxycarbonyl-4-(3-phenylpropyl-amino)pyrimidine] | 90 | 30 | 70 | 100 | 50 | 100 | 100 | 20 | 50 | 80 | 50 | 60
